Tested on: artificially reconstructed neural cell network (rat cerebral cortex neurons)
Assay: stimulus transmission in reconstructed neural cell network on 64-electrode sensor
Type: cell-based
Details: 40 μM, treated for 10 minutes; constant voltage stimulus at one electrode (row 5, column 5)
Method: Neurons were prepared from the cerebral cortex of gestation day 17 rat embryos and were suspended in Dulbecco's modified medium, and were dispensed into each container of a sensor comprising 64 electrodes and containers as shown in FIG. 3 at a concentration of 5×10^5 cells/ml, followed by culturing for two weeks. As a result, an artificial neural cell network was reconstructed on the sensor. The sensor containing the reconstructed neural cell network was used as follows. An apparatus having the configuration of FIG. […] The transmission of the stimulus was measured by detecting cell potentials at the remaining 63 electrodes. […] A neural cell network reconstructed as in Examples 1 and 2 was treated with 40 μM DNQX (6,7-Dinitroquinoxaline-2,3(1H,4H)-dione) for 10 minutes. As in Example 2, a constant voltage stimulus was applied to a cell on a sensor. The transmission of the stimulus was measured by detecting cell potentials at the remaining 63 electrodes.

Question: With `O=c1[nH]c2cc([N+](=O)[O-])c([N+](=O)[O-])cc2[nH]c1=O` [DNQX, 6,7-Dinitroquinoxaline-2,3(1H,4H)-dione] as the compound, how does the “response (cell potentials) at the remaining 63 electrodes to constant voltage stimulus” value read?
Answer: a response was not observed at any of the electrodes
